According to the SangsterLogP compilation:

Test: method code SF, from DOI: 10.1016/j.ejps.2012.10.019, PMID: 23131797

O=C(c1nn(-c2ccccc2)c(=O)c2ccccc12)N1CCOCC1
logD (pH 7.3): 2.47

O=C(COC(=O)c1cccc(N2C(=O)c3ccccc3C2=O)c1)c1ccc(F)cc1
logD (pH 5.0): 4.68

CC(C)(C)c1cc(C(F)(F)F)nc(SCCNC(=O)C2CCCCC2)n1
logD (pH 6.5): 5.77

Cc1c(NC(=O)CC(c2ccccc2)c2ccccc2)cccc1-n1cnnn1
logD (pH 2.0): 3.2

CCOc1ccc(NC(=O)CN(C)C(=O)c2ccc(C)o2)cc1OCC
logD (pH 10.5): 2.09

C#CCOc1c(I)cc(C=C2C(=O)N(C)C(=S)N(C)C2=O)cc1OCC
logD (pH 5.0): 3.72

CCOC(=O)C1=C(Nc2ccc(OC(=O)Nc3ccc(OC(F)(F)F)cc3)cc2)C(=O)N(C(C)(C)C)C1
logD (pH 5.0): 6.72

COc1ccc(S(=O)(=O)N2CCCCCC2)cc1C(=O)OCC(=O)c1c(N)n(C)c(=O)n(C)c1=O
logD (pH 10.5): 4.59

Cc1cc(SCC(=O)NCc2ccc3c(c2)OCO3)nc2ccccc12
logD (pH 8.0): 4.15

CC(C)(C)c1cc(-c2nc(-c3ccc(C(F)(F)F)cn3)no2)n(Cc2ccccc2)n1
logD (pH 10.5): 6.58

CC1=CC(C(F)(F)F)(C(F)(F)F)C(C#N)=C(N)N1c1ccc(C(N)=O)cc1
logD (pH 5.0): 4.41

O=C(CSc1ncnc2sc3c(c12)CCC3)Nc1ccc(F)cc1
logD (pH 7.3): 4.69

CCc1cc(=O)oc2c(C)c(OCC(=O)OC(C)(C)C)ccc12
logD (pH 5.0): 4.52

COc1ccc(S(=O)(=O)N(CC(=O)Nc2cccc([N+](=O)[O-])c2)C2CCCCC2)cc1Cl
logD (pH 5.0): 5.48

CC(C)CCn1c(NCCO)nc2c1c(=O)n(C)c(=O)n2C
logD (pH 7.3): 2.93

CC(C)OCCCNC(=O)C(=O)NCc1ccc(C(C)C)cc1
logD (pH 5.0): 4.57

COc1ccccc1Nc1nc(OCC(F)(F)F)nc(OCC(F)(F)F)n1
logD (pH 5.0): 5.27

COc1cc2c(cc1OC)CN(C(=O)c1cccc(S(=O)(=O)N3CCCCC3)c1)CC2
logD (pH 5.0): 4.2

CCCS(=O)(=O)c1c(S(=O)(=O)CCC)c2cnccn2c1C(=O)c1ccc(C)cc1
logD (pH 5.0): 3.93

CC(NS(C)(=O)=O)c1ccccc1 (stereo not given)
logD (pH 5.0): 1.8

COc1ccc(-c2nnc(SCc3cc(=O)oc4ccc5ccccc5c34)n2N)cc1
logD (pH 5.0): 4.24

FC(F)(F)c1ccc(-n2cc3ccccc3n2)cc1
logD (pH 5.0): 4.42

O=C(c1ccccc1)c1ccc(N2CCN(C(=O)c3c(F)cccc3F)CC2)c(F)c1
logD (pH 7.3): 5.14

O=C(CSCc1ccccc1)Nc1ccc(-c2ccc([N+](=O)[O-])cc2)cc1
logD (pH 5.0): 5.38

CC1=NN(c2ccccc2)C(=O)C1Sc1nc(N)c(C#N)c(-c2ccc(C)cc2)c1C#N (stereo not given)
logD (pH 10.5): 4.99

COc1cc(C(=O)Nc2ccccc2C(C)(C)C)cc(OC)c1OC
logD (pH 5.0): 3.61

O=C(CSc1nnc2c3ccccc3n(Cc3ccccc3)c2n1)OCN1C(=O)c2ccccc2C1=O
logD (pH 6.5): 4.51

Cc1ccc(C)n1-c1ccc(-c2ccnc3ncnn23)cc1
logD (pH 10.0): 3.5

COc1ccc(-c2nnc(N)s2)cc1OC
logD (pH 6.5): 2.34

CCOc1cc(C#N)c(NC(=O)c2cc(S(=O)(=O)N3CCOCC3)c(Cl)cc2Cl)cc1OCC
logD (pH 5.0): 4.31

COC(=O)c1cnn2c(C(F)(F)F)cc(-c3cc(OC)c(OC)c(OC)c3)nc12
logD (pH 5.0): 4.08

CC(=O)c1cc2ccccc2o1
logD (pH 5.0): 2.15

COc1cccc(OC)c1C(=O)Nc1ccc(N2CCN(C(=O)c3ccccc3C)CC2)cc1
logD (pH 7.3): 4.16

Cn1c(SCc2cc(F)cc(F)c2)nnc1-c1ccc2nonc2c1
logD (pH 7.3): 3.68

CCOC(=O)c1nc(N)sc1C
logD (pH 8.0): 1.74

CCc1ccc2nc3c(cc2c1)c(=O)n(-c1ccccc1)c1c3c(=O)n(C)c(=O)n1C
logD (pH 10.5): 4.31

CC1CCC2(CC1)N=C(c1ccccc1)C(=O)N2CC(=O)Nc1ccc2c(c1)OCCO2 (stereo not given)
logD (pH 6.5): 5.07

COc1ccc(C2CC(=O)C3=C(C2)Nc2ccccc2N(C(=O)C(F)(F)F)C3c2cc(OC)c(OC)c(OC)c2)cc1 (stereo not given)
logD (pH 7.3): 4.87

COC(=O)COc1cc2occ(-c3csc(C)n3)c(=O)c2cc1C
logD (pH 10.5): 3.9

O=C(Nc1cc2c(n(CCNc3ncc(C(F)(F)F)cc3Cl)c1=O)CCCC2=O)c1ccc(Cl)cc1
logD (pH 7.3): 5.83

CC(C)N(Cc1nc(-c2ccccc2)no1)C(=O)c1ccccc1CCc1ccccc1
logD (pH 5.0): 5.98

C=C(C)CSc1nnc(-c2cccc(S(=O)(=O)N3CCOCC3)c2)n1C1CCCC1
logD (pH 10.5): 4.73

O=C(Nc1ccccc1C(F)(F)F)NC1CCCCC1
logD (pH 5.0): 4

O=C(OCC(=O)N(C1CCCCC1)C1CCCCC1)c1ccc(Cl)nc1
logD (pH 5.0): 4.99

CC1(C)CC(=O)C2=C(C1)OC(N)=C(C#N)C21CCC2(CC1)OCCO2
logD (pH 10.0): 3.24

CCc1c(C#N)c(SCC(=O)N2CCc3cc(OC)c(OC)cc3C2)nc2c1C(=O)CC(C)(C)C2
logD (pH 5.0): 4.89

Cc1ccc(C(=O)N2C(=O)c3cccc(N)c3C2=O)cc1NC(=O)c1ccco1
logD (pH 7.0): 3.55

CC(=O)NCCc1ccc(S(=O)(=O)N2CCOCC2)cc1
logD (pH 5.0): 2

COC(=O)CN(c1ccccc1)S(=O)(=O)c1ccc(OC)cc1
logD (pH 5.0): 3.43

O=C(c1ccc(F)cc1)C1CC1
logD (pH 5.0): 2.61

Cc1ccccc1-c1noc(CCl)n1
logD (pH 5.0): 3.3

CCCNC(=O)N1CCN(C(=O)NCCC)CC1
logD (pH 10.5): 1.04

COc1nc(Cl)nc(Nc2ccccc2)n1
logD (pH 5.0): 2.89

Cc1cccc(NC(=O)CSc2ccccn2)c1C
logD (pH 7.3): 3.19

O=C(COC(=O)c1ccccc1F)Nc1ccccc1
logD (pH 5.0): 3.18

Cn1ncc(Br)c1C(=O)N1CCCCCC1
logD (pH 5.0): 2.63

O=C(COc1ccc2ccccc2c1)N1CCN(S(=O)(=O)c2ccc3c(c2)OCCO3)CC1
logD (pH 5.0): 4.47

COc1ccc(N2C(=O)Cc3ccccc3C2=O)cc1
logD (pH 5.0): 2.56

C=CCn1c(SCC(=O)NCc2ccc(C(=O)OCC)cc2)nc2sc(C)c(C)c2c1=O
logD (pH 7.3): 4.83

COCc1cc(OC(=O)N(C)C)nc(SCC(=O)C(C)(C)C)n1
logD (pH 5.0): 3.33

Cc1ccc(S(=O)(=O)N(C)c2ccc(OCC(=O)N3CCN(c4ncccn4)CC3)cc2)cc1
logD (pH 10.5): 4.46

CCN(C(=O)C(=O)c1cn(CC(=O)N2CCOCC2)c2ccccc12)c1ccccc1
logD (pH 2.0): 2.05

Cc1ccc(S(=O)(=O)N2CCCN(S(=O)(=O)c3ccc(C)cc3C)CC2)c(C)c1
logD (pH 5.0): 5.01

CCOC(=O)c1c(NC(=O)CSc2nnc(C)s2)sc2c1CCCCC2
logD (pH 7.3): 5.03

CCCCC(=O)Nc1ccc(F)c([N+](=O)[O-])c1
logD (pH 5.0): 3.04

CCCn1c(SCc2cc(=O)n3cc(Br)ccc3n2)nnc1-c1cccc(C)c1
logD (pH 6.5): 4.43

COc1ccc(N2C3=C(C(=O)CC(C)(C)C3)C(c3ccc4c(c3)OCO4)C3=C2CC(C)(C)CC3=O)cc1
logD (pH 5.0): 5.72

CN(C)S(=O)(=O)c1ccc(C(=O)OC2CCCCC2)cc1
logD (pH 5.0): 4.27

C=CCn1c(SCC(=O)Nc2ccc(C)c(F)c2)nnc1-c1cccs1
logD (pH 7.3): 4.48

CCn1c(SCc2ccccc2F)nc2sc(C)c(C)c2c1=O
logD (pH 10.5): 5.86

Cc1ccc(-n2c(C)cc(=O)cc2C)cc1C
logD (pH 10.5): 2.95

COC(=O)c1cccc(NC(=O)c2cc(C(=O)Nc3cccc(C(=O)OC)c3)cc(N3C(=O)c4ccccc4C3=O)c2)c1
logD (pH 6.5): 6.09

COc1ccccc1NC(=O)C1=C(C)Nc2nc(SCc3ccccc3F)nn2C1c1ccncc1 (stereo not given)
logD (pH 7.3): 4.66

CCOC(=O)CC1=Nn2c(nnc2-c2cccs2)SC1
logD (pH 10.0): 2.98

COc1cc(C(=O)COC(=O)CCCOc2ccc(Cl)cc2Cl)cc(OC)c1OC
logD (pH 6.5): 5.59

CCOc1cc(-c2nnc(-c3ccco3)o2)cc(OCC)c1OCC
logD (pH 10.5): 3.96

Nc1ccccc1Nc1ccccc1
logD (pH 10.0): 2.67

COc1cc(C2C(C#N)=C(N)Oc3cc(C)[nH]c(=O)c32)cc(OC)c1OC (stereo not given)
logD (pH 10.5): 2.55

Cc1cc(=O)oc2cc(OC(C)C)ccc12
logD (pH 5.0): 3.33

CCn1cc(CN(C)C(=O)c2cc3cc(Br)ccc3oc2=O)c(C)n1
logD (pH 5.0): 3.27
